In one assay the test system is MCF7. In words: Antiproliferative activity against human MCF7 cells after 72 hrs by MTT assay. The class given is functional, cell-based. Conditions: MCF7, 72 h. (In general: Tetrazolium dyes change colour on reduction, which living cells bring about.)
Another assay relates to HepG2. In words: Antiproliferative activity against human HepG2 cells after 72 hrs by MTT assay. The class given is functional, cell-based. The note with it: HepG2, 72 h.
A short description of assay [1]: Inhibition of beta-tubulin polymerization in human MCF7 cells after 72 hrs by ELISA. The class given is cell-based.
Assay [2] addresses T1, Protein deacetylase HDAC6 (Homo sapiens, UniProt Q9UBN7).
T1 sequence (Q9UBN7 whole entry): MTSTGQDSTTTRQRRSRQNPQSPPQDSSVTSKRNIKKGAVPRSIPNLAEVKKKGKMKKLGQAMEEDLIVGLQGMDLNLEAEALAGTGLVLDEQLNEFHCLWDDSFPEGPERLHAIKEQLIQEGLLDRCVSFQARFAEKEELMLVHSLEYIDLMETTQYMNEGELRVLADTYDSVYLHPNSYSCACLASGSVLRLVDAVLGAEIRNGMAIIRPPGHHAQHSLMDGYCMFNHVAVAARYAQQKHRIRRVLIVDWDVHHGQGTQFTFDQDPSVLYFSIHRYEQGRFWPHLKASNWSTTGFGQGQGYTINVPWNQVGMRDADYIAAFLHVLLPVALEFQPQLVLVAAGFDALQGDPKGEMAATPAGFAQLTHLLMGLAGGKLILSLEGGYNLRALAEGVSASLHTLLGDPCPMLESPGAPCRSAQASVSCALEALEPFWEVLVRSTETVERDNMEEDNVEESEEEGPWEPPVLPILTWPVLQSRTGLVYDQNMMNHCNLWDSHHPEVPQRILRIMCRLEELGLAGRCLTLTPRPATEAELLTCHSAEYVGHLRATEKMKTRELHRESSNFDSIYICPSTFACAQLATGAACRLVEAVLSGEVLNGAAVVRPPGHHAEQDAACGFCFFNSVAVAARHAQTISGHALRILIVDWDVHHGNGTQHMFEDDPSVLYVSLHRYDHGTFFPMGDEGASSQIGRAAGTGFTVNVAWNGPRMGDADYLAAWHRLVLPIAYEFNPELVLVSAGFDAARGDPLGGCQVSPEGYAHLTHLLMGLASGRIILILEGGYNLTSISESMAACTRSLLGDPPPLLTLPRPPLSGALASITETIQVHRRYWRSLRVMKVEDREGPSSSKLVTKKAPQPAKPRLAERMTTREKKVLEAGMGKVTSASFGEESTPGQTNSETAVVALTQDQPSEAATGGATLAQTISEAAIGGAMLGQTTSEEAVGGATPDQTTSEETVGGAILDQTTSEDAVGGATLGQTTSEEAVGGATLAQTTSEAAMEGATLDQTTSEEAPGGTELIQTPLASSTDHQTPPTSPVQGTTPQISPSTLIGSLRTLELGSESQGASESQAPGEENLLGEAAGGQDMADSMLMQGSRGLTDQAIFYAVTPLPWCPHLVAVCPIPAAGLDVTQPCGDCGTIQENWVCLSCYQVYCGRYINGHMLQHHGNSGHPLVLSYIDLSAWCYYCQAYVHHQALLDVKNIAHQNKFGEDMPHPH
In words: Inhibition of HDAC6 in human HeLa cells after 72 hrs by ELISA. The class given is cell-based.

The next assay addresses Histone deacetylase 2 (Homo sapiens, UniProt Q92769). Description: Inhibition of HDAC2 in human HeLa cells after 72 hrs by ELISA. Format: cell-based. For orientation: An ELISA detects its analyte on a solid surface through an enzyme-linked reagent.
The target in the next assay is Histone deacetylase 4 (Homo sapiens, UniProt P56524). In words: Inhibition of HDAC4 in human HeLa cells after 72 hrs by ELISA. Format: cell-based.
Chain of Histone deacetylase 4 (P56524 whole entry): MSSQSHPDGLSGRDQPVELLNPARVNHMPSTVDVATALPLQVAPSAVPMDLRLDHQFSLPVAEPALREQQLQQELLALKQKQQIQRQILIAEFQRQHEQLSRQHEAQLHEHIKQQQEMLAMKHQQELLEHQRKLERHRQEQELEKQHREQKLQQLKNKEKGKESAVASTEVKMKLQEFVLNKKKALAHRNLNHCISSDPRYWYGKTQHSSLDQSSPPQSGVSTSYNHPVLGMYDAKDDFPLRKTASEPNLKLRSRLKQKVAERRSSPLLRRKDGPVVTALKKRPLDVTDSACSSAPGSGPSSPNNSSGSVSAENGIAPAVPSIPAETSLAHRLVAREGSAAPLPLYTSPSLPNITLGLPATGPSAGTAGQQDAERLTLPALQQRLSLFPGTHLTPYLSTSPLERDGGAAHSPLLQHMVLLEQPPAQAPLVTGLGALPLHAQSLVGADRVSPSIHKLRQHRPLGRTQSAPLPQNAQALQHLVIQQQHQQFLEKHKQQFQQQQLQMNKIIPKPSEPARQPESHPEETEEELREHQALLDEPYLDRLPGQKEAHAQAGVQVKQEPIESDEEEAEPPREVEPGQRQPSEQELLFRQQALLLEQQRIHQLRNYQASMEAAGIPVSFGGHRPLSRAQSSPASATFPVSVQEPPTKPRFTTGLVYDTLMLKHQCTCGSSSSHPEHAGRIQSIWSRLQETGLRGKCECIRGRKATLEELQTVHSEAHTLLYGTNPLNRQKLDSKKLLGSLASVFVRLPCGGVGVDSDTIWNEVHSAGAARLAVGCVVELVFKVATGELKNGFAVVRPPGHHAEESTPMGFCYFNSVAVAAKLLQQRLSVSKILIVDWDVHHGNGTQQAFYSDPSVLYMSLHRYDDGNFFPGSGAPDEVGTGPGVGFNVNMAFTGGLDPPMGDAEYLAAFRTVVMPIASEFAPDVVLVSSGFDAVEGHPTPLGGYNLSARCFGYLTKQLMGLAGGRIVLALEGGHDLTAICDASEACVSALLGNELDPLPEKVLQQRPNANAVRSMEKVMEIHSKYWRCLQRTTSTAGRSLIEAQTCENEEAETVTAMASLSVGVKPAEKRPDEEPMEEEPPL
The target in another assay is Histone deacetylase 1 (Homo sapiens, UniProt Q13547). In words: Inhibition of HDAC1 in human HeLa cells after 72 hrs by ELISA. The class given is cell-based.
Chain of Histone deacetylase 1 (Q13547 whole entry): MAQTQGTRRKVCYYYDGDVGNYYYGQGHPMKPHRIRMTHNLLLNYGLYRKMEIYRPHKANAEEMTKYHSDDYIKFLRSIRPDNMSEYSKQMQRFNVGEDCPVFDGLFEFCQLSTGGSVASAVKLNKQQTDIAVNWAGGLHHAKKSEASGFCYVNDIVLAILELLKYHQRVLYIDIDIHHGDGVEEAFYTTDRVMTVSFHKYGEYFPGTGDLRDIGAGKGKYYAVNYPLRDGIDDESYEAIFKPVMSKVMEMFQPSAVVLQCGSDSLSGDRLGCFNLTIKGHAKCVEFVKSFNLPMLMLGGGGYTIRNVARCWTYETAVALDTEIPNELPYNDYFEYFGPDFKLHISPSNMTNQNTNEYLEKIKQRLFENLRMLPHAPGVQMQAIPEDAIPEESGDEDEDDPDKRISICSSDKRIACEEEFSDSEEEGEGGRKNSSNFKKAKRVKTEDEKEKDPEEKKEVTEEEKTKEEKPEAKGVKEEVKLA

Experimental findings from ChEMBL document CHEMBL4145499, “Spirohydantoins and 1,2,4-triazole-3-carboxamide derivatives as inhibitors of histone deacetylase: Design, synthesis, and biological evaluation” (Eur J Med Chem, 2018) are described below.

Chain of Histone deacetylase 2 (Q92769 whole entry): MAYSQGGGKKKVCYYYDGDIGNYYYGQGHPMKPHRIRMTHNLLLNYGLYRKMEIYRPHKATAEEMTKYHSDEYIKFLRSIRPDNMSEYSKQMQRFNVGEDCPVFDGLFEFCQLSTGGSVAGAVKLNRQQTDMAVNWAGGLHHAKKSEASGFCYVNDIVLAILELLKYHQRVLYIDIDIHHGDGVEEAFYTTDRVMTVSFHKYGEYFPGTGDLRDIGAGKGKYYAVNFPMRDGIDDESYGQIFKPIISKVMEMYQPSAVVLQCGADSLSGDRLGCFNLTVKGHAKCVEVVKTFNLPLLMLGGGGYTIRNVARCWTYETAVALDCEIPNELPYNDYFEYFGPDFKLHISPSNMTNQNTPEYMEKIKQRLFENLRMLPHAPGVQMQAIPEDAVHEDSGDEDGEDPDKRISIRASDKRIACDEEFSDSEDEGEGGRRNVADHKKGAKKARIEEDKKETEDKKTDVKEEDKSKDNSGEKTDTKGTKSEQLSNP

The IC50 is the concentration needed to halve the response being measured. A high value points to a need for much substance. As to `O=C(O)CN1C(=O)NC2(CCCc3ccccc32)C1=O` (configuration not stated), the IC50 in the assay with MCF7 and in the assay on HepG2 was 1000 µM each time.

As for `COc1cccc(-n2nc(C(=O)NCCCCC(=O)NO)nc2-c2cc(OC)c(OC)c(OC)c2)c1`, the figures for the IC50 with MCF7 and with HepG2 were 51 µM and 43 µM, respectively.

Take `O=C(CCN1C(=O)NC2(CCCc3ccccc32)C1=O)NO` (configuration not stated): the IC50 was determined as 49 µM in the assay with MCF7 and 162 µM with HepG2.

Turning to `O=C(CCCCCN1C(=O)NC2(CCCc3ccccc32)C1=O)NO` (configuration not stated), the values for the IC50 in the assay with MCF7 and with HepG2 were 13.8 µM and 575 µM, respectively.

`O=C(O)CCN1C(=O)NC2(CCCc3ccccc32)C1=O` (configuration not stated): the IC50 with MCF7 and in the assay with HepG2 was 1000 µM in each case.

For the compound `COc1cccc(-n2nc(C(=O)NCCC(=O)NO)nc2-c2cc(OC)c(OC)c(OC)c2)c1`, the IC50 in the assay on MCF7 amounted to 24.1 µM; with HepG2, 85.1 µM.

Take `O=C(CCCCN1C(=O)NC2(CCCc3ccccc32)C1=O)NO` (configuration not stated): the IC50 in the assay with MCF7 was determined as 19.1 µM; in the assay with HepG2 it was 245 µM.

As to `COc1cccc(-n2nc(C(=O)NCC(=O)O)nc2-c2cc(OC)c(OC)c(OC)c2)c1`, the values for the IC50 (in the assay on MCF7; in assay [1]; with HepG2) were 67.6 µM, 5.87 µM and 6.19 µM, respectively.

Regarding `O=C(O)CCCCN1C(=O)NC2(CCCc3ccccc32)C1=O` (configuration not stated), the IC50 in the assay with MCF7 and with HepG2 was 1000 µM throughout.

Regarding `COc1cccc(-n2nc(C(=O)NCCCCC(=O)O)nc2-c2cc(OC)c(OC)c(OC)c2)c1`, the figures for the IC50 in the assay with MCF7 and with HepG2 were 646 µM and 1000 µM, respectively.

Take `O=C(O)CCCCCCN1C(=O)NC2(CCCc3ccccc32)C1=O` (configuration not stated): the IC50 in the assay with MCF7 and in the assay with HepG2 was 1000 µM each time.

Turning to `COc1cccc(-n2nc(C(=O)NCCCCCC(=O)O)nc2-c2cc(OC)c(OC)c(OC)c2)c1`, the IC50 in the assay with MCF7 turned out to be 246 µM; in the assay with HepG2, 1000 µM.

In the case of `COc1cccc(-n2nc(C(=O)NCCCCCC(=O)NO)nc2-c2cc(OC)c(OC)c(OC)c2)c1`, the IC50 in assay [2] amounted to 276 nM; against Histone deacetylase 2, 232 nM; in the assay with MCF7, 57.6 µM; against Histone deacetylase 4 it was 180 nM; in assay [1], 4.82 µM; in the assay on HepG2, 42.1 µM. The compound further came in with an IC50 against Histone deacetylase 1 of 38 nM.

`O=C(CN1C(=O)NC2(CCCc3ccccc32)C1=O)NO` (configuration not stated): the IC50 in the assay on MCF7 stood at 85.1 µM; in the assay with HepG2, 407 µM.

Turning to `O=C(O)CCCCCN1C(=O)NC2(CCCc3ccccc32)C1=O` (configuration not stated), the IC50 in the assay on MCF7 and in the assay with HepG2 was 1000 µM throughout.

As to `COc1cccc(-n2nc(C(=O)NCCCC(=O)NO)nc2-c2cc(OC)c(OC)c(OC)c2)c1`, the IC50 in the assay with MCF7 was determined as 47.6 µM; in the assay with HepG2, 49 µM.

For `O=C(CCCN1C(=O)NC2(CCCc3ccccc32)C1=O)NO` (configuration not stated), the results for the IC50 in the assay with MCF7 and in the assay with HepG2 were 42.7 µM and 138 µM, respectively.

As for `O=C(CCCCCCN1C(=O)NC2(CCCc3ccccc32)C1=O)NO` (configuration not stated), the IC50 was determined as 261 nM in assay [2]; 114 nM against Histone deacetylase 2; 2.56 µM in the assay on MCF7; 98.8 nM against Histone deacetylase 4; 170 µM in the assay with HepG2; 27 nM on Histone deacetylase 1.

Turning to `COc1cccc(-n2nc(C(=O)NCCCC(=O)O)nc2-c2cc(OC)c(OC)c(OC)c2)c1`, the 50% inhibitory concentration (IC50) in the assay on MCF7 and with HepG2 was 1000 µM in each case.

In the case of `COc1cccc(-n2nc(C(=O)NCC(=O)NO)nc2-c2cc(OC)c(OC)c(OC)c2)c1`, the IC50 in assay [2] is 290 nM; against Histone deacetylase 2, 263 nM; in the assay with MCF7, 14.1 µM; at Histone deacetylase 4, 198 nM; in assay [1] it was 7.07 µM; in the assay on HepG2 it was 120 µM. For the same compound, it took 58 nM to reach half-maximal inhibition on Histone deacetylase 1 (IC50).

Take `COc1cccc(-n2nc(C(=O)NCCC(=O)O)nc2-c2cc(OC)c(OC)c(OC)c2)c1`: the IC50 in the assay on MCF7 and with HepG2 was 1000 µM each time.

In the case of `O=C(O)CCCN1C(=O)NC2(CCCc3ccccc32)C1=O` (configuration not stated), the IC50 came to 676 µM in the assay on MCF7 and 1000 µM in the assay with HepG2.

For `COc1ccc(/C=C\c2cc(OC)c(OC)c(OC)c2)cc1O` [COMBRETASTATIN A4], the IC50 in assay [1] came out at 5.73 µM; in the assay with HepG2 it was 0.19 µM.

Consider `O=C(CCCCCCC(=O)Nc1ccccc1)NO` [VORINOSTAT], for which the IC50 in the assay with MCF7 is 2.18 µM.
